Reference: patent publication US20070112018A1, “Treatment of peripheral arterial occlusive disease” (priority 2005, published 2007)
Read-outs that look alike come from different tables or passages of the source.

Columns and labels:
C. pneumoniae = experiment: Rabbit model of atherosclerosis accelerated by C. pneumoniae infection, cholesterol diet; conditions: C. pneumoniae-infected rabbits; rifalazil 5 mg/kg or azithromycin 30 mg/kg PO daily 1 week then twice weekly 6 weeks; 19 weeks after beginning treatment
Protocol: Thirty received three separate C. pneumoniae inoculations performed at 3-week intervals. Similarly, 15 control rabbits were intranasally inoculated with 1 mL of normal saline under the same conditions.
Nineteen weeks after beginning antibiotic treatment, the rabbits were euthanized. After euthanasia, hearts were examined histologically and by immunofluorescence. Animal serum samples were also examined for seropositivity to the infecting organism.

[1] = Non-clinical oral pharmacokinetics, all species evaluated; format: in vivo; conditions: oral administration
Protocol: Since the PK profile of rifalazil has been studied in man, only a brief summary of the non-clinical PK is provided. Overall, the absorption, distribution, metabolism, and elimination of rifalazil observed in the animals studied are similar to those observed in man.
Peak plasma concentrations were observed from 4 to 18 hours after oral administration.

[2] = Placebo-controlled study of 30 mg and 100 mg in healthy volunteers, adverse events; format: in vivo, human
Protocol: In a placebo-controlled study of 30 mg and 100 mg in […], […] received the 30 mg dose of rifalazil. Sixty-two percent of patients (5/8) reported AEs while 33% of placebo subjects (3/9) reported AEs. The only AE of note reported in this rifalazil dose group was headache (38%, […]) compared to the placebo-treated group (11%, 1/9 subjects). […] However, this baseline value was not considered clinically significant nor were subsequent nadir values obtained on Days 3 and 7 (3.8×10^3 cells/mm^3).

[3] = human, in vivo
[4] = Phase 1 pharmacokinetic analyses by gender, single or multiple doses 2.5-50 mg; format: in vivo, human
Protocol: There were no significant differences between males and females for AUC0-∞ when data were normalized to 1 mg/kg following single doses of 2.5 to 50 mg rifalazil (see FIG. 3 and FIG. 4).
The Vdβ/F was large indicating extensive distribution in the body. […] The mean minimum plasma concentrations (Cmin) of rifalazil over time during 5 days of dosing with 2.5 and 5 mg rifalazil increased from Days 2-6 in both males and females at both dose levels.

[5] = Single 25 mg rifalazil with Ortho-Novum 1/35 in post-menopausal female volunteers, adverse events; conditions: human, in vivo
Protocol: In another study, a single oral dose of 25 mg rifalazil was administered and its effects on ethinyl estradiol and norethindrone levels administered as the contraceptive Ortho-Novum 1/35® in 16 healthy post-menopausal female volunteers for 14 days was determined. The incidence of AEs was similar between the two treatment periods, with 13 (93%) of the 14 subjects included in the safety population experiencing at least 1 AE during dosing with Ortho-Novum 1/35 alone and 12 (86%) during dosing with rifalazil and Ortho-Novum 1/35. Overall, 4 (29%) subjects experienced at least 1 AE considered by the Investigator to be at least possibly related to rifalazil. The most commonly reported rifalazil-related events were nausea (4 subjects, 29%); headache (3 subjects, 21%); and loose stools, feeling hot, rigors, and myalgia (2 subjects each, 14%).
The majority of AEs were of mild or moderate intensity. One subject experienced myalgia of severe intensity during dosing with rifalazil and Ortho-Novum 1/35 that was assessed as probably related to study medication. […] Two subjects withdrew from the study because of AEs during the Ortho-Novum 1/35 only dosing period; neither subject received rifalazil.

[6] = Tissue distribution in rats after a single oral dose (Study 6510-109); format: in vivo, rat; conditions: for Kp: oral, 3 mg/kg, species not given
Protocol: Distribution to the majority of tissues was higher than observed plasma levels.
(§1) In rats and dogs, the Vdβ/F following oral administration was 40-80 L/kg. […] The highest mean Cmax observed was in the wall of the GI tract and occurred approximately 1 hour post-dose. […] A large tissue compartment of rifalazil is considered important for efficacy against Chlamydia given the intracellular nature of Chlamydia infection.

[7] = 25 mg cumulative doses over one week, adverse events by regimen; format: in vivo, human
Protocol: Different dosing regimens of rifalazil that achieve 25-mg cumulative doses in 1 week also provide relevant clinical information on the safety of 25 mg administered as a single dose once per week.
For a cumulative dose of 25 mg, the overall incidence of AEs was somewhat lower when rifalazil was administered as 5 mg QD for 5 days, compared with a single dose of 25 mg (75%). Similarly, the overall incidence of drug-related AEs was lower when 25 mg was administered as a 5 mg for 5 days (63%), vs. 12.5 mg as 2 doses (separated by 72 hours) (70%), and as a single dose of 25 mg (75%).

[8] = Phase 1 Study ABI-1648-009, food effect on PK of single 25-mg oral dose
C. trachomatis = experiment: Cell culture protection against re-infection with C. trachomatis; format: cell-based; conditions: single doses in cell culture
[9] = Tissue concentrations after multiple oral doses in the monkey; format: in vivo
Protocol: as §1

[10] = Non-clinical oral pharmacokinetics in the rat; format: in vivo; conditions: for bioavailability: rat, plasma, po
Protocol: as §1

[11] = Degradation to 25-desacetyl derivative under acidic and basic conditions; format: physicochemical
Text: Rifalazil degrades to a 25-desacetyl derivative under both acidic and basic conditions. Typical of ester hydrolysis, the degradation in highly alkaline solutions is rapid while at an acidic pH, e.g., pH 1, the degradation at room temperature is slower, approximately 6% in one hour.

SMILES: CO[C@H]1/C=C/O[C@@]2(C)Oc3c(C)c(O)c4c(=O)c(c5oc6cc(N7CCN(CC(C)C)CC7)cc(O)c6nc-5c4c3C2=O)NC(=O)/C(C)=C\C=C\[C@H](C)[C@H](O)[C@@H](C)[C@@H](O)[C@@H](C)[C@H](OC(C)=O)[C@@H]1C [rifalazil, 3′-hydroxy-5′-(4-isobutyl-1-piperazinyl) benzoxazinorifamycin]
- Plaque Area Stenosis (%) (C. pneumoniae): 24.2%
- Cmax and AUC as a function of dose [1]: dose-dependent but not dose-proportional
- headache ([2]; 30 mg single oral dose (3/5 subjects)): 38%
- patients reporting AEs ([2]; 30 mg single oral dose (5/8)): Sixty-two
- WBC count nadir values, one subject ([2]; 30 mg single oral dose, Days 3 and 7, baseline 4.3×10^3): 3.8×10^3 cells/mm^3
- overall extent of metabolism [3]: less than 3 % of the administered dose
- steady state ([4]; after 5 days of dosing with 2.5 and 5 mg): does not appear that steady state was reached
- half-life ([4]; both sexes, human, plasma, oral, following single doses, read-out: mean elimination t1/2): 100 to 150 h
- half-life ([4]; both sexes, human, plasma, oral, multiple dosing, up to 5 days, read-out: mean elimination t1/2): 87 to 174 h
- half-life ([4]; both sexes, human, plasma, oral, read-out: t1/2 (converted)): ~100 h
- Tmax ([4]; both sexes, human, plasma, oral, single or multiple doses 2.5-50 mg, males and females, read-out: mean time to maximum concentration (Tmax)): 4 to 6 h
- Vdβ/F ([4]; in vivo): large
- exposure (mean Cmax and AUC0-∞) as a function of dose ([4]; males and females, 2.5 to 50 mg, increase not dose proportional): increased with rifalazil dose
- subjects experiencing at least 1 AE ([5]; female): 86%
- deaths or other serious AEs [5]: No deaths or other serious AEs
- subjects with transient Grade 3 decreases in absolute lymphocyte count (ALC<0.5×10^3/mm^3) [5]: two
- Kp ([6]; rat, liver, read-out: tissue to plasma ratio (AUC), liver): 33.7
- Kp ([6]; rat, testes, read-out: tissue to plasma ratio (AUC), testes): 4.9
- concentration at 1 h ([6]; rat, wall of the GI tract, rats, single oral 3 mg/kg, at 1 hour): 5400 ng/g
- tissue concentration, spleen ([6]; rats, single oral 3 mg/kg, at 8-12 hours post dose): 5.1-9.3 μg/gm
- incidence of flu-like symptoms ([7]; 5 mg QD for 5 days (5/15 patients)): 33%
- overall incidence of drug-related AEs ([7]; 5 mg for 5 days): 63%
- overall incidence of drug-related AEs ([7]; 12.5 mg as 2 doses separated by 72 hours): 70%
- incidence of flu-like symptoms ([7]; 12.5 mg×2 dose regimen): 15%
- incidence of flu-like symptoms ([7]; 25 mg single-dose (3/16 patients)): 19%
- overall incidence of AEs ([7]; single dose of 25 mg): 75%
- overall incidence of drug-related AEs ([7]; single dose of 25 mg): 75%
- Tmax ([8]; male, human, plasma, oral, 25 mg): ~3 h
- absorption (Cmax and AUC) fasted versus fed ([8]; overnight fast compared with 30% or 60% fat meal, single 25 mg): lower
- duration of protective effect against re-infection with C. trachomatis (C. trachomatis): up to 12 days
- concentrations in genitourinary and GI tissues and coronary arteries versus plasma [9]: exceeded concentrations in plasma
- bioavailability ([10]; female rats, 3 mg/kg): 28.9%
- bioavailability ([10]; female rats, 100 mg/kg): 6.1%
- bioavailability ([10]; male rats, 3 mg/kg): 43.5%
- bioavailability ([10]; male rats, 100 mg/kg): 11.7%
- Vdβ/F ([10]; rats, oral administration): 40 to 80 L/kg
- degradation in highly alkaline solutions ([11]; highly alkaline solutions): rapid
- degradation to 25-desacetyl derivative ([11]; pH 1, room temperature, in one hour): approximately 6%
